Experiments:
Assay type in all cases: biochemical
MGLL = target: T1, MGLL (Mus musculus, UniProt O35678); assay: In vitro competitive activity-based protein profiling, mouse brain proteome (MGLL); details: concentration not given (μM)
T1 construct: Brain; from tissue; host or cells: mouse brain proteome
T1 sequence (O35678 1-303): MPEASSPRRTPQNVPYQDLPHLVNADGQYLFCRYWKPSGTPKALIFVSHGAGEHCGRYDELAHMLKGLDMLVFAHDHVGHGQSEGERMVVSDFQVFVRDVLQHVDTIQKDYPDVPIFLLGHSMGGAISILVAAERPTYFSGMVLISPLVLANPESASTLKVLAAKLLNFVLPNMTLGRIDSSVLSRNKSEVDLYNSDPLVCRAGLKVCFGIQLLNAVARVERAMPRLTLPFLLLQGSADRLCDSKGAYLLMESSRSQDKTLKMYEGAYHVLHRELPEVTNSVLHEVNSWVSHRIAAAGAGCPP

MAGL = target: T2, MAGL (Homo sapiens, UniProt Q99685); assay: In vitro competitive activity-based protein profiling (FP-Rh or HT-01 probe, gel-based); details: prefrontal cortex (PFC) proteome, concentration not given (μM)
T2 construct: Proteomes (human prefrontal cortex or cell membrane fractions); from tissue
T2 sequence (Q99685 1-303): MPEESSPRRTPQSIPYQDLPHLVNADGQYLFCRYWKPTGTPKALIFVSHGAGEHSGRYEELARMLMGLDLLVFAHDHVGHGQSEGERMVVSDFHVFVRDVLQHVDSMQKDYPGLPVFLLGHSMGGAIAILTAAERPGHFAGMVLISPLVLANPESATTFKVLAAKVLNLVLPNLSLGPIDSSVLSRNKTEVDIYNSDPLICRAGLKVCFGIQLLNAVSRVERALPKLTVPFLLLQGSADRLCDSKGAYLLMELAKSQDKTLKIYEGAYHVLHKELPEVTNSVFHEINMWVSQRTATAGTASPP
Outline: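 Human prefrontal cortex or cell membrane proteomes (1.0 mg/mL total protein) were preincubated with varying inhibitor concentrations for 30 min at 37° C. FP-Rh or HT-01 probe (50 μM DMSO stock) was then added for 30 min at room temperature, and samples were quenched in SDS loading buffer and resolved by SDS-PAGE.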

ABHD6 = target: T3, ABHD6 (Mus musculus, UniProt Q8R2Y0); assay: In vitro competitive activity-based protein profiling, mouse brain proteome (ABHD6); details: mouse brain proteome; concentration not given (μM)
T3 construct: Brain; from tissue; host or cells: mouse brain proteome
T3 sequence (Q8R2Y0 1-336): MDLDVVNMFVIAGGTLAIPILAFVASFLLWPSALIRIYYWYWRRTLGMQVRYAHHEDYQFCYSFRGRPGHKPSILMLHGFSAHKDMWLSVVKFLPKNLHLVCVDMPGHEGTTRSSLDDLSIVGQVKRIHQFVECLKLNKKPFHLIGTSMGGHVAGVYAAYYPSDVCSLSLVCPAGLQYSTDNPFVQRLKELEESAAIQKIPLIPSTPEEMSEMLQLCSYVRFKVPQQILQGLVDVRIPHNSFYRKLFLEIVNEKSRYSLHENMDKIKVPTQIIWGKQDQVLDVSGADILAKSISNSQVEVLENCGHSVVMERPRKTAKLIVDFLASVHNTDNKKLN
Experimental: [The source words this procedure for another target and reports this target under the same test.] In Vitro Competitive Activity-Based Protein Profiling.
Proteomes (human prefrontal cortex or cell membrane fractions) (50 μL, 1.0 mg/mL total protein concentration) were preincubated with varying concentrations of inhibitors at 37° C. After 30 min, FP-Rh or HT-01 (1.0 μL, 50 μM in DMSO) was added and the mixture was incubated for another 30 min at room temperature. Reactions were quenched with SDS loading buffer (15 μL-4×) and run on SDS-PAGE.

Row | Compound | % Inh MGLL Brain (Mouse, μM) (MGLL) | % Inh MGLL PFC (Human, μM) (MAGL) | % Inh ABHD6 Brain (Mouse, μM) (ABHD6)
1 | CC1(C(=O)O)CCCN(c2cc(CN3CC4(CCN(C(=O)OC(C(F)(F)F)C(F)(F)F)CC4)C3)cc(C(F)(F)F)c2)C1 (stereo not drawn) [Example 114, l-(3-((7-(((1,1,1,3,3,3-Hexafluoropropan-2-yl)oxy)carbonyl)-2,7-diazaspiro[3,5]nonan-2-yl)methyl)-5-(trifluoromethyl)phenyl)-3-methylpiperidine-3-carboxylic acid] | ### (### is ≥75%) | ### (### is ≥75%) | # (# is ≤25%)
2 | CC1(C(=O)O)CCN(c2cc(C(F)(F)F)ccc2CN2CC3(CCN(C(=O)OC(C(F)(F)F)C(F)(F)F)CC3)C2)C1 (stereo not drawn) [Example 115, l-(2-((7-(((1,1,1,3,3,3-Hexafluoropropan-2-yl)oxy)carbonyl)-2,7-diazaspiro[3,5]nonan-2-yl)methyl)-5-(trifluoromethyl)phenyl)-3-methylpyrrolidine-3-carboxylic acid] | ### (### is ≥75%) | ### (### is ≥75%) | # (# is ≤25%)
3 | O=C(O)C1CCN(c2cc(Cl)cc(CN3CC4(CCN(C(=O)OC(C(F)(F)F)C(F)(F)F)CC4)C3)c2)CC1 [Example 116, l-(3-Chloro-5-((7-(((1,1,1,3,3,3-hexafluoropropan-2-yl)oxy)carbonyl)-2,7-diazaspiro[3.5]nonan-2-yl)methyl)phenyl)piperidine-4-carboxylic acid] | ### (### is ≥75%) | ### (### is ≥75%) | ### (### is ≥75%)
4 | O=C(O)C1CCN(c2cc(F)cc(CN3CC4(CCN(C(=O)OC(C(F)(F)F)C(F)(F)F)CC4)C3)c2)CC1 [Example 117, 1-(3-Fluoro-5-((7-(((1,1,1,3,3,3-hexafluoropropan-2-yl)oxy)carbonyl)-2,7-diazaspiro[3.5]nonan-2-yl)methyl)phenyl)piperidine-4-carboxylic acid] | ### (### is ≥75%) | ### (### is ≥75%) | ## (## is between 25 and 75%)
5 | O=C(OC(C(F)(F)F)C(F)(F)F)N1CCC2(CC1)CCN(C(=O)c1ccc(C(F)(F)F)cc1Cl)C2 [Example 119, 1,1,1,3,3,3-Hexafluoropropan-2-yl 2-(2-chloro-4-(trifluoromethyl)benzoyl)-2,8-diazaspiro[4.5]decane-8-carboxylate] | ### (### is ≥75%) | ### (### is ≥75%) | ### (### is ≥75%)
6 | O=C(O)C1CCCCN1c1cc(CN2CC3(CCN(C(=O)OC(C(F)(F)F)C(F)(F)F)CC3)C2)cc(C(F)(F)F)c1 (stereo not drawn) [Example 120, l-(3-((7-(((1,1,1,3,3,3-Hexafluoropropan-2-yl)oxy)carbonyl)-2,7-diazaspiro[3,5]nonan-2-yl)methyl)-5-(trifluoromethyl)phenvl)piperidine-2-carboxylic acid] | ### (### is ≥75%) | ### (### is ≥75%) | ### (### is ≥75%)
7 | CC1(C(=O)O)CCN(c2cc(CN3CC4(CCN(C(=O)OC(C(F)(F)F)C(F)(F)F)CC4)C3)cc(C(F)(F)F)c2)C1 (stereo not drawn) [Example 121, l-(3-((7-(((1,1,1,3,3,3-Hexafluoropropan-2-yl)oxy)carbonyl)-2,7-diazaspiro[3.5]nonan-2-yl)methyl)-5-(trifluoromethyl)phenyl)-3-methylpyrrolidine-3-carboxylic acid] | ### (### is ≥75%) | ### (### is ≥75%) | ### (### is ≥75%)
8 | O=C(O)C1CCN(c2cc(Cl)ccc2CN2CC3(CCN(C(=O)OC(C(F)(F)F)C(F)(F)F)CC3)C2)CC1 [Example 122, l-(5-Chloro-2-((7-(((1,1,1,3,3,3-hexafluoropropan-2-yl)oxy)carbonyl)-2,7-diazaspiro[3.5]nonan-2-yl)methyl)phenyl)piperidine-4-carboxylic acid] | ### (### is ≥75%) | ### (### is ≥75%) | # (# is ≤25%)
9 | O=C(O)C1CCN(c2cc(F)ccc2CN2CC3(CCN(C(=O)OC(C(F)(F)F)C(F)(F)F)CC3)C2)CC1 [Example 123, l-(5-Fluoro-2-((7-(((1,1,1,3,3,3-hexafluoropropan-2-yl)oxy)carbonyl)-2,7-diazaspiro[3,5]nonan-2-yl)methyl)phenyl)piperidine-4-carboxylic acid] | ### (### is ≥75%) | ### (### is ≥75%) | # (# is ≤25%)
10 | CC1(N(CC(=O)O)Cc2ccc(C(F)(F)F)cc2N2CCOCC2)CCN(C(=O)OC(C(F)(F)F)C(F)(F)F)CC1 [Example 124, N-(1-(((1,1,1,3,3,3-Hexafluoropropan-2-yl)oxy)cart>onyl)-4-methylpiperidin-4-yl)-N-(2-morpholino-4-(trifluoromethyl)benzyl) glycine] | ### (### is ≥75%) | ### (### is ≥75%) | # (# is ≤25%)
11 | O=C(O)CN1CC2CC1CN2c1cc(CN2CCC3(CCN(C(=O)OC(C(F)(F)F)C(F)(F)F)CC3)C2)cc(C(F)(F)F)c1 (stereo not drawn) [Example 125, 2-(5-{3-[(8-{[(1,1,1,3,3,3-Hexafluoropropan-2-yl)oxy]carbonvl}-2,8-diazaspiro[4.5]decan-2-yl)methyl]-5-(trifluoromethyl)phenyl}-2,5-diazabicyclo[2.2.1]heptan-2-yl)acetic acid] | ### (### is ≥75%) | ### (### is ≥75%) | ### (### is ≥75%)
12 | O=C(O)CN1CC2CC1CN2c1cc(C(F)(F)F)ccc1CN1CCCC12CCN(C(=O)OC(C(F)(F)F)C(F)(F)F)CC2 (stereo not drawn) [Example 126, 2-(5-{2-[(8-{[(1,1,1,3,3,3-Hexafluoropropan-2-yl)oxy]carbonyl}-1,8-diazaspiro[4.5]decan-1-yl)methyl]-5-(trifluoromethyl)phenyl}-2,5-diazabicyclo[2.2.1]heptan-2-yl)acetic acid] | ### (### is ≥75%) | ### (### is ≥75%) | # (# is ≤25%)
13 | O=C(O)CN1CC2CC1CN2c1cc(C(F)(F)F)ccc1CN1CC2(CCN(C(=O)OC(C(F)(F)F)C(F)(F)F)CC2)C1 (stereo not drawn) [Example 127, 2-(5-{2-[(7-{[(1,1,1,3,3,3-Hexafluoropropan-2-yl)oxy]carbonyl}-2,7-diazaspiro[3.5]nonan-2-yl)methyl]-5-(trifluoromethyl)phenyl}-2,5-diazabicyclo[2.2.1]heptan-2-yl)acetic acid] | ### (### is ≥75%) | ### (### is ≥75%) | ### (### is ≥75%)
14 | O=C(O)CN1CC2CC1CN2c1cc(CN2CCCC23CCN(C(=O)OC(C(F)(F)F)C(F)(F)F)CC3)cc(C(F)(F)F)c1 (stereo not drawn) [Example 128, 2-(5-{3-[(8-{[(1,1,1,3,3,3-Hexafluoropropan-2-yl)oxy]carbonyl}-1,8-diazaspiro[4.5]decan-1-yl)methyl]-5-(trifluoromethyl)phenyl}-2,5-diazabicyclo[2.2.1]heptan-2-yl)acetic acid] | ### (### is ≥75%) | ### (### is ≥75%) | # (# is ≤25%)
15 | O=C(O)CN1CC2CC1CN2c1cc(CN2CC3(CCN(C(=O)OC(C(F)(F)F)C(F)(F)F)CC3)C2)cc(C(F)(F)F)c1 (stereo not drawn) [Example 129, 2-(5-{3-[(7-{[(U,l,3,3,3-Hexafluoropropan-2-yl)oxy]carbonyl}-2,7-diazaspiro[3.5]nonan-2-yl)methyl]-5-(trifluoromethyl)phenyl}-2,5-diazabicyclo[2.2.1]heptan-2-yl)acetic acid] | ### (### is ≥75%) | ## (## is between 25 and 75%) | ### (### is ≥75%)

— patent publication US11161856B2 (H. Lundbeck A/S, priority 2017, dated 2021)
